A short description of test [1]: THP-1 cell cytotoxicity, dose response, cytotoxicity control for Vif-APOBEC3G degradation inhibitor project, THP-1 cells (AID 1117359). The conditions noted are these: Human immunodeficiency virus 1, THP-1. Format: functional.
A further test has as its target T1, Leucine aminopeptidase (Plasmodium falciparum 3D7, UniProt Q8IL11).
T1 sequence (Q8IL11 whole entry): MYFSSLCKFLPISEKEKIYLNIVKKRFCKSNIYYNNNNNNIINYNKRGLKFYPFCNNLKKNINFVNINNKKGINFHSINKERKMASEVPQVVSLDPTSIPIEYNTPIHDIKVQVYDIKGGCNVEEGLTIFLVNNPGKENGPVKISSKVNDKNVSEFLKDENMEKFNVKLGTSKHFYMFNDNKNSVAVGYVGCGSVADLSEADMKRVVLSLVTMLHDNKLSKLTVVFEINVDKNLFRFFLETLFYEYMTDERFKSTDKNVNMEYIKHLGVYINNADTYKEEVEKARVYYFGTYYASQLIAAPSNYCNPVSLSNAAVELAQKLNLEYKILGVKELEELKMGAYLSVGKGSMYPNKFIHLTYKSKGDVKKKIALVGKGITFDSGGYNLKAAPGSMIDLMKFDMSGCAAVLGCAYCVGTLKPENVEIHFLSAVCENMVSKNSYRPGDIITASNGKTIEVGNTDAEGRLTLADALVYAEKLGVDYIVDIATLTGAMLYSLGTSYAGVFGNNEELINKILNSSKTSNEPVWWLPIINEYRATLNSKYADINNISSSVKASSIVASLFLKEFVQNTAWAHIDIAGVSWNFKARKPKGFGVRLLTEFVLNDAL
Kind of test: P. falciparum M17LAP inhibitors, primary screen, biochemical, fluorogenic H-Leu-NHMec substrate, 1536-well (AID 1619). It counts as functional.

Another test deals with T2, Caspase-6 (Homo sapiens, UniProt P55212).
T2 sequence (P55212 whole entry): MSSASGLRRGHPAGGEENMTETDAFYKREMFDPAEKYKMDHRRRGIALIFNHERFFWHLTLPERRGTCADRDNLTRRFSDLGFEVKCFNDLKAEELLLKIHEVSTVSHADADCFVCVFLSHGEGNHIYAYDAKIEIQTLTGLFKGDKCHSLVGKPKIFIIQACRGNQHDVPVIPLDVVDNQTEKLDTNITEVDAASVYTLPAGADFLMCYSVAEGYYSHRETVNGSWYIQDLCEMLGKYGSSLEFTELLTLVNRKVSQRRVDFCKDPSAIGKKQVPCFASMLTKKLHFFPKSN
Kind of test: human caspase-6 inhibitors, dose response, biochemical, VEID-R110 fluorescence, cherry-pick (AID 720632).

Another test deals with Vero. In words: host cell cytotoxicity of antiviral hits, dose response, cytotoxicity control for West Nile virus antiviral project, secondary assay (AID 1650). Particulars: Chlorocebus sabaeus. It counts as functional.
A short description of test [2]: growth suppression of PTEN-null colon cells, dose response, cell-based, HCT116 PTEN knockout (AID 1047).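 Note: HCT116 colon tumor cells with PTEN knocked out; cells exposed to compound for 60 hours before readout; potency for loss of cell viability measured by luminescence.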 It counts as functional.
Test [3] is described as follows: growth suppression of beta-catenin-knockout colon cells, dose response, cell-based, HCT116, human colon tumor (AID 1045).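 Note: HCT116 colon tumor cells with beta catenin knocked out; cells exposed to compound for 60 hours.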 It counts as functional.
The target of a further test is T3, Aminopeptidase N (Plasmodium falciparum FcB1/Columbia, UniProt O96935).
T3 sequence (O96935 whole entry): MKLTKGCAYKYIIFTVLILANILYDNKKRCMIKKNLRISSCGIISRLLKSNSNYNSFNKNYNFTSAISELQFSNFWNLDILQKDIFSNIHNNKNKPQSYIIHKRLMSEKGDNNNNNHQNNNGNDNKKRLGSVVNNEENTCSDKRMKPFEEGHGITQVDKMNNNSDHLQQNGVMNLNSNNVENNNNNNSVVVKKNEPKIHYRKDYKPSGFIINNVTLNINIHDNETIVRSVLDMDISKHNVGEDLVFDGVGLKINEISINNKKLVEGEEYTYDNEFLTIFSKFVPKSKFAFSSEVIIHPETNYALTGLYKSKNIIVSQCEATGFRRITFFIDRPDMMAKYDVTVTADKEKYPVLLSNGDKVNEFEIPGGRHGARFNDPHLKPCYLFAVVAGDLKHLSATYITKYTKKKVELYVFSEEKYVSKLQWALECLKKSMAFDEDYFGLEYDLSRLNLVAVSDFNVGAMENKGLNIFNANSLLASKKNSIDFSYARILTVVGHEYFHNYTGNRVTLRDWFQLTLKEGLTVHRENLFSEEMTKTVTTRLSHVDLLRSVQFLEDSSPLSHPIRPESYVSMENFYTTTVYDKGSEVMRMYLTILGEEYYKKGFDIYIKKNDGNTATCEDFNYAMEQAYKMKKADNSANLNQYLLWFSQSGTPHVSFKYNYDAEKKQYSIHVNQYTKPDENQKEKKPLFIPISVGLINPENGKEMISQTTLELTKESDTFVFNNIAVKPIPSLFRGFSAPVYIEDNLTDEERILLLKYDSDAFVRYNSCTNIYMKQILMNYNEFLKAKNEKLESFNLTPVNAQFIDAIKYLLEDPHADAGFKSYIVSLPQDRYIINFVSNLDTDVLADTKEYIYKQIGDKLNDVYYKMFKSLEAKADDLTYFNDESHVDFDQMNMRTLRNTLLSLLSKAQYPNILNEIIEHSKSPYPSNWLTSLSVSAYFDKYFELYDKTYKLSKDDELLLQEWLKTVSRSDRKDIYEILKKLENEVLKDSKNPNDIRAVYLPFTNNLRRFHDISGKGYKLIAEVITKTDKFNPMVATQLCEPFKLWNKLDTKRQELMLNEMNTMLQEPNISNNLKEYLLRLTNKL
Kind of test: P. falciparum M1AAP inhibitors, biochemical, fluorogenic H-Leu-NHMec substrate, 1536-well (AID 1445). Further details: species or system Plasmodium falciparum 3D7, 3D7.

Test [4] deals with T4, 1-phosphatidylinositol 4,5-bisphosphate phosphodiesterase gamma-1 (Homo sapiens, UniProt P19174).
T4 sequence (P19174 whole entry): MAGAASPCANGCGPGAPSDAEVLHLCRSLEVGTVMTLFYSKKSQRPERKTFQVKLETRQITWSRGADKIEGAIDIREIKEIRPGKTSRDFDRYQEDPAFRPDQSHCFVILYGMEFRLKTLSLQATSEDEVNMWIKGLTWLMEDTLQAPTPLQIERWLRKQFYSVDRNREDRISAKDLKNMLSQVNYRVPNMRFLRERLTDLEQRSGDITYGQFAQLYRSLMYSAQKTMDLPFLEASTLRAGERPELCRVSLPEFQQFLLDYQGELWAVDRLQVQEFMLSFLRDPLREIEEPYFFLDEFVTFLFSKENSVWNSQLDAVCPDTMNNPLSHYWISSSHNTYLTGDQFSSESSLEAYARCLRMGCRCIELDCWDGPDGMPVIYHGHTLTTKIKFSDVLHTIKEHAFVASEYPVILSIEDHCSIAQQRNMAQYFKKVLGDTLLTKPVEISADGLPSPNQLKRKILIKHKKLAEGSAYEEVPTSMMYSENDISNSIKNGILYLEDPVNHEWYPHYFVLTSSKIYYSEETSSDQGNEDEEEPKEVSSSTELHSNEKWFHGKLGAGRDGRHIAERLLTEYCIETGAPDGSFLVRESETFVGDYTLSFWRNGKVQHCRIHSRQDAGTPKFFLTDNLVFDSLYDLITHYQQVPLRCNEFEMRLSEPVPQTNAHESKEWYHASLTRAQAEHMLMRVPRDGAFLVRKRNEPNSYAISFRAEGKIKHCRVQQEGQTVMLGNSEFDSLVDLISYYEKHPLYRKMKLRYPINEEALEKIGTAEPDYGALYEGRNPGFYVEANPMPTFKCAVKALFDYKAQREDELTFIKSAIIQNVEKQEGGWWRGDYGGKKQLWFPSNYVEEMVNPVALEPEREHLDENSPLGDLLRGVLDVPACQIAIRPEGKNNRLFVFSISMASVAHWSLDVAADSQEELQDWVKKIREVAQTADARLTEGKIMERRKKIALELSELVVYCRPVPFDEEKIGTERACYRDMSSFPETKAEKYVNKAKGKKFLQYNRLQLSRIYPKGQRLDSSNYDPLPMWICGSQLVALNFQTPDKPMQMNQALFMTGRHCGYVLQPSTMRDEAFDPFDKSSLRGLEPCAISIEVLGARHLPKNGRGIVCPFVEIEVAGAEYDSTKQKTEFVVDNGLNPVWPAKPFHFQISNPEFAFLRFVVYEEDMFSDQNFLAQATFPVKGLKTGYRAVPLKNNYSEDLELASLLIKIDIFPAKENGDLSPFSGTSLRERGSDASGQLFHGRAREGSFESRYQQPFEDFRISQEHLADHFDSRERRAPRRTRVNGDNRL
Kind of test: Counterscreen for inhibitors of phospholipase C isozymes (PLC-B3): Fluorescence-based biochemical high throughput dose response assay to identify inhibitors of phospholipase C isozymes (PLC-gamma1). In general terms: A counterscreen serves to expose hits that act by an unwanted route or on another target.

Test [5] concerns the target T5, 1-phosphatidylinositol 4,5-bisphosphate phosphodiesterase beta-3 (Homo sapiens, UniProt Q01970).
T5 sequence (Q01970 whole entry): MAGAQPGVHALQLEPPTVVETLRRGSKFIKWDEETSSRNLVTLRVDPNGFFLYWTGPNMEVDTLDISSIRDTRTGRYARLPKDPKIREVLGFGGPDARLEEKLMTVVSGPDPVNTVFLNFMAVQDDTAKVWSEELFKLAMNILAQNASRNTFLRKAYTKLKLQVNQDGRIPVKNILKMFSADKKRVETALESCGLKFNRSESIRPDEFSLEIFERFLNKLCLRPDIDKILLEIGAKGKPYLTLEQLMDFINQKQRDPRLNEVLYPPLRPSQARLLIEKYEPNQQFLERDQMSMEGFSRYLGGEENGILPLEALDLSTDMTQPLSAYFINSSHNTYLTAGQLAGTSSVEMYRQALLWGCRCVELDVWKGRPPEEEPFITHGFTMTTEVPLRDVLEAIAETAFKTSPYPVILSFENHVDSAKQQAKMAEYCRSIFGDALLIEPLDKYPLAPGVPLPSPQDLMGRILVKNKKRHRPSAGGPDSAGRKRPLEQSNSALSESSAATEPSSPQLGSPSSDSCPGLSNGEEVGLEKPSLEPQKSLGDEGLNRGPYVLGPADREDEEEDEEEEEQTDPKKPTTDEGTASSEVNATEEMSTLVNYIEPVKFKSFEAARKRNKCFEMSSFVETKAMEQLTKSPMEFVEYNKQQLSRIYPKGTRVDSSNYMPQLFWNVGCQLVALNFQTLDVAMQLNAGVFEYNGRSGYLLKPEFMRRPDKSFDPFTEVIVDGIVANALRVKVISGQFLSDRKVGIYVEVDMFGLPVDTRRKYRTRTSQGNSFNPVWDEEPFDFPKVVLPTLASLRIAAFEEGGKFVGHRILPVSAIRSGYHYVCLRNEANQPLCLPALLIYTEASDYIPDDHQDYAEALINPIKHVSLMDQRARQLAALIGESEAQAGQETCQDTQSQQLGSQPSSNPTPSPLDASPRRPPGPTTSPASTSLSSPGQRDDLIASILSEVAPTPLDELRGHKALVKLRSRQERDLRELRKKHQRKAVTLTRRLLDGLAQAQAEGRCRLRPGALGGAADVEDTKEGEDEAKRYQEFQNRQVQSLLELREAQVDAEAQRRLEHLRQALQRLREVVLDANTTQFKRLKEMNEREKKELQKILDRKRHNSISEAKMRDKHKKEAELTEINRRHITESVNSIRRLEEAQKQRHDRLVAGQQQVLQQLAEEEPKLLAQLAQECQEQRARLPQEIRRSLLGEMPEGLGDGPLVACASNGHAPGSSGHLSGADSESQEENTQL
In words: Fluorescence-based biochemical high throughput dose response assay to identify inhibitors of phospholipase C isozymes (PLC-B3).

A short description of test [6]: IOSE-T80 ovarian epithelial cell cytotoxicity, dose response, cytotoxicity control for PAX8 inhibitor project, plate reader, dry powder samples (AID 743045). It counts as functional, cell-based.
A short description of test [7]: inhibitors of PGC1a acetylation in cells, dose response, cell-based, cherry-picked samples (AID 720514).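 Note: potency may reflect raised or lowered acetylation signal.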 Format: functional.
Test [8] can be described thus: NIH:OVCAR-3 ovarian cancer cell cytotoxicity, dose response, PAX8 inhibitor project, plate reader, dry powder samples (AID 743044). It counts as functional, cell-based.
The nature of test [9]: IGROV1 ovarian cancer cell cytotoxicity, dose response, PAX8 inhibitor project, plate reader, dry powder samples (AID 743043). The conditions noted are these: IGROV-1. It counts as functional, cell-based.

Active and inactive are the calls of the source.

In general, CC50 refers to the concentration that lowers cell viability or growth by half. Regarding `CCNS(=O)(=O)c1ccc(-c2ccc(-n3cnnn3)cc2)cc1`, the CC50 in test [1] was > 40 µM (active).

Consider `CCN(CCCNC(=O)C1CCCN(S(=O)(=O)CC)C1)c1cccc(C)c1` (stereo not drawn), for which, in test [1], the CC50 is > 40 µM (active).

In general, IC50 refers to the point on the concentration scale where inhibition reaches its midpoint. One may read the AC50 as the concentration giving half of the maximal activity seen. For `O=C(O)CCC(=O)Nc1sc2c(c1C(=O)Nc1ccccc1)CCCCC2`, the IC50 at Leucine aminopeptidase was 47 µM (active). Further, the AC50 on Caspase-6 is 45 µM (active).

The term EC50 denotes the concentration that produces a half-maximal response. For the molecule `COc1cc(/C=C/C(=O)c2ccc(O)cc2)ccc1OCC#N`, in the test on Vero, the CC50 was 31.9 µM (active). Besides, the EC50 is 2.34 µM (active) in test [2] and 1.93 µM (active) in [3].

Regarding `COc1ccc(/C=C2\SC(=S)NC2=O)cc1OS(=O)(=O)c1ccc(NC(C)=O)cc1`, on Aminopeptidase N, the IC50 is 29.8 µM (active). In addition, the AC50 on Caspase-6 is 17 µM (active).

Take `CC(C)(C)c1ccc(CNc2nc(-c3ccccn3)nnc2-c2ccccc2)cc1`: the IC50 in test [4] and in [5] was > 122 µM (inactive) in each case.

On to `COc1cccc(-c2ccc([C@@H]3[C@@H]4CN(Cc5cccc(F)c5)C[C@H]3N4)cc2)c1`, for which the AC50 in [6] was 36 µM (active); in test [7], 4.26 µM (active); in test [8], 24.4 µM (active); in test [9], 34 µM (active).

Consider `O=S(=O)(CS(=O)(=O)c1ccccc1Br)c1ccccc1Br`, for which the IC50 in test [4] is 44.7 µM (inactive); in [5], > 122 µM (inactive).

With `CC12CC[C@H]3[C@@H](CCC4(O)C[C@H](O)CCC34/C=N/NC(=O)c3ccccc3O)C1(O)CCC2C1=CC(=O)OC1` (stereo partly drawn), the CC50 in the test on Vero is 22.2 µM (active).

Source of the values: ChEMBL document CHEMBL1201862, “PubChem BioAssay data set” (2004).
